Converted amounts (≈) assume the structure as drawn. Read-outs that look alike come from different tables or passages of the source. One block for each compound: values may come before it.
Key:
[1] = tested on: HR in human U-2 OS IndDR-GFP cells; test: Inducible I-SceI DR-GFP assay (IndDR-GFP), inhibition of HR; assay type: cell-based; details: Homo sapiens, U2OS; U-2 OS IndDR-GFP cells; 24 h with compound; ± SD; read-out: IC50, efficiency of HR inhibition in IndDR-GFP assay
Method: Exponentially growing U-2 OS IndDR-GFP cells were seeded at a density of 2 × 10^5 cells/well into 6-well plates with DMEM media containing 80 µg/mL G418 and indicated concentrations of RAD51i(s). For I-SceI induced samples, the media were supplemented with 0.5 µM Shield1 (Clontech, Mountain View, CA, USA) with 100 nM triamcinolone acetonide (Sigma, St. Louis, MO, USA). After 24 h of incubation, the media were removed, cells were washed with the DMEM, and the incubation continued for 48 h in DMEM containing 100 units/mL penicillin, 100 µg/mL streptomycin, and 80 µg/mL G418. Then, cells were trypsinized, trypsin solution was neutralized with an equal volume of media, and 10% formaldehyde solution in PBS was added for fixation to reach a final concentration of formaldehyde of 3.3%. The yield of GFP-positive cells indicative of HR activity was measured by flow cytometry with the Guava easyCyte system, and the data were analyzed with the InCyte program (Millipore; Burlington, VT, USA).

MDA-MB-231 cells = test: Cell viability assay (Guava ViaCount flow cytometry), MDA-MB-231; assay type: cell-based, human; details: Homo sapiens
Method: (§1) For all cell viability experiments, except experiments involving MMS treatment, cells were seeded into the media containing indicated concentrations of tested compounds or corresponding amounts of DMSO in controls. The concentration of DMSO in media was 0.1%. MDA-MB-231 cells were seeded into 24-well plates at 3.5 × 10^4 cells/well for cells for a 4-day treatment or at 5000 cells/well for a 10-day treatment. MCF 10A cells were seeded into 24-well plates at 1.5 × 10^4 cells/well for a 4-day treatment or at 500 cells/well for a 10-day treatment. In the case of 10-day treatments, the media with compounds were renewed twice on the 4th and the 7th days of treatments. After completion of the treatments, cells were harvested, and their viability was determined by flow cytometry with Guava ViaCount reagent (Luminex; Austin, TX USA). Data were analyzed using the Guava ViaCount software (Millipore; Burlington, VT, USA). The IC50 values were calculated using the GraphPad Prism 5 software (San Diego, CA, USA).

[2] = tested on: HR in U-2 OS DR-GFP cells; test: Canonical DR-GFP assay, inhibition of HR; assay type: cell-based; details: Homo sapiens, U2OS
HsRAD51 [3] = target: T1, HsRAD51 (Homo sapiens, UniProt Q06609); design: method as in PMID 22380680; details: earlier work; cited from earlier work
T1 sequence (Q06609 1-339): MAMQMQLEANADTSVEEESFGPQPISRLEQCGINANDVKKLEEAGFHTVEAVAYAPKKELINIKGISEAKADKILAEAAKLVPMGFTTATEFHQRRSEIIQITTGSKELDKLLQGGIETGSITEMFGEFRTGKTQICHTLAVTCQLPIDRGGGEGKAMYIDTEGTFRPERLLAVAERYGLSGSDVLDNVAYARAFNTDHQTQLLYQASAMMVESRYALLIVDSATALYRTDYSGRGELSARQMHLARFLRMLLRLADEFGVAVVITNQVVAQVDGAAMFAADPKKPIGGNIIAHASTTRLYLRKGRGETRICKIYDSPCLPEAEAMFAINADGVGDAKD

[4] = tested on: RAD51 foci in U-2 OS IndDR-GFP cells; design: method as in PMID 24971740; details: earlier work; cited from earlier work
HsRAD51 [5] = target: T1, HsRAD51; test: Surface plasmon resonance (SPR) binding to immobilized RAD51; details: 25 °C, equilibrium analysis, ± SD, read-out: KD, equilibrium dissociation constant of direct binding to hRAD51
Method: The binding of RAD51i to RAD51 was examined using a ProteOn XPR36 SPR Protein Interaction Array System (Bio-Rad, Hercules, CA, USA) at 25 °C. ProteOn GLH sensor chips were preconditioned with two 10 s pulses of 50 mM NaOH, 100 mM HCl, and 0.5% SDS followed by the system equilibration with the running buffer (20 mM sodium phosphate, 150 mM NaCl, and 0.005% Tween 20, pH 7.4). The surface of a GLH sensorchip was subsequently activated with a 1:100 dilution of a 1:1 mixture of 0.2 M EDC and 0.05 M Sulfo-NHS. Purified HsRAD51 was diluted to 500 µg/mL in 10 mM sodium acetate, pH 5.5, and injected immediately after chip activation across the ligand flow channels at 30 µL/min for 5 min. Unreacted protein was washed out, and the excess of unreacted ester groups on the sensor surface was capped by an injection of 1 M ethanolamine-HCl, pH 8.0, at 5 µL/min for 5 min. A reference surface to correct for nonspecific binding was similarly created by immobilizing an IgG b12 anti-HIV-1 gp120 antibody (IgG b12 anti-HIV-1 gp120; was obtained through the NIH AIDS Reagent Program, Division of AIDS, NIAID, NIH: Anti-HIV-1 gp120 Monoclonal (IgG1 b12) from Drs. Dennis Burton and Carlos Barbas). Serial dilutions of the compounds were prepared in the running buffer supplemented with 8% DMSO and injected at a flow rate of 100 μL/min for a 1 min association phase, followed by a 5 min dissociation phase using the “one-shot kinetics” functionality of the ProteOn instrument. Data were analyzed with ProteOn Manager Software version 3.0 (Bio-Rad; Hercules, CA, USA). The responses from the reference flow cell were subtracted to account for the non-specific binding and injection artifacts. Experiments were repeated at least three times. The equilibrium dissociation constants (KD) for the interactions were calculated in ProteOn Manager Version 3.1.0.6 (Bio-Rad; Hercules, CA, USA) using the equilibrium analysis function.

MCF 10A cells = test: Cell viability assay (Guava ViaCount flow cytometry), MCF 10A; assay type: cell-based, human; details: 4-day treatment
Method: as §1

Solubility in DMSO = assay type: physicochemical; details: organic solvent or mixture; in 100% DMSO; read-out: Maximal soluble concentration

SMILES: O=c1nc(/C=C/c2cccnc2)n(Cc2ccccc2Cl)c2ccccc12 [o-Cl-B02-iso]
IC50 [1]: 5.56 ± 0.49 µM

SMILES: O=C(c1cc(Cc2n[nH]c(=O)c3ccccc23)ccc1F)N1CCN(C(=O)C2CC2)CC1 [olaparib, reference compound]
IC50 (MDA-MB-231 cells; MDA-MB-231, 240 h, MDA-MB-231, 10-day treatment, olaparib only (DMSO), read-out: IC50 of olaparib, cell viability): 8.6 µM
IC50 (MDA-MB-231 cells; MDA-MB-231, 240 h, MDA-MB-231 transfected with antiRAD51 siRNA_A, 10 days olaparib, read-out: IC50 of olaparib, cell viability): 3.2 µM
IC50 (MDA-MB-231 cells; MDA-MB-231, 240 h, MDA-MB-231 transfected with scrambled siRNA, 10 days olaparib, read-out: IC50 of olaparib, cell viability): 6.3 µM

SMILES: O=c1nc(/C=C/c2cccnc2)n(Cc2ccccc2Br)c2ccccc12 [o-Br-B02-iso]
IC50 [1]: 4.6 ± 1.28 µM

SMILES: O=c1c2ccccc2nc(/C=C/c2cccnc2)n1Cc1ccccc1 [B02]
IC50 [1]: 17.7 ± 3.89 µM
IC50 [2]: 17.9 ± 3.5 µM
Binding to RAD51 in vitro by SPR (HsRAD51 [3]): binds to RAD51 directly in vitro
RAD51 foci formation induced by cisplatin [4]: disrupts RAD51 foci formation

SMILES: O=c1nc(/C=C/c2cccnc2)n(Cc2cccc(Br)c2)c2ccccc12 [m-Br-B02-iso]
IC50 [1]: 0.9 ± 0.18 µM
Kd (HsRAD51 [5]): 8.4 ± 1.8 µM

The remaining compounds from weak to strong by IC50 [1], led by results:

IC50 [1]: 0.86 ± 0.02 µM
SMILES: O=c1nc(/C=C/c2cccnc2)n(Cc2cccc(I)c2)c2ccccc12 [m-I-B02-iso]

IC50 [1]: 0.8 ± 0.1 µM
solubility (Solubility in DMSO): 500 µM (≈ 209 µg/mL)
SMILES: O=c1nc(/C=C/c2cccnc2)n(Cc2ccc(Br)cc2)c2ccccc12 [p-Br-B02-iso]

IC50 [1]: 0.72 ± 0.07 µM
Kd (HsRAD51 [5]): 1.4 ± 0.6 µM
IC50 (MDA-MB-231 cells; MDA-MB-231, 96 h, MDA-MB-231, 4-day treatment, read-out: IC50 of cell viability): 1.1 µM
SMILES: O=c1nc(/C=C/c2cccnc2)n(Cc2ccc(I)cc2)c2ccccc12 [p-I-B02-iso]
Times lower sensitivity of MCF 10A compared with MDA-MB-231 (MCF 10A cells; ratio of IC50): approximately 3
IC50 (MCF 10A cells; Homo sapiens, 96 h, MCF 10A): 2.7 µM
